Drawing on patent US8648066B2 (Exelixis, Inc., priority 2009, dated 2014), this text covers IC50 for 21 compounds.

Structures are written as SMILES. Where only a bound is given, the exact number is not on record here.

The target of the test is mTOR/GbL/Raptor (mTORC1) (Homo sapiens, UniProt P42345). Put plainly: mTOR/GbL/Raptor (mTORC1) ELISA assay. Type of test: biochemical. The conditions noted are these: phosphorylation of 4E-BP1; 0.2 nM mTORC1, 10 μM ATP; read-out: IC50 in this assay (mTORC1 ELISA). An outline of the steps:
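Human mTORC1 (0.2 nM) phosphorylated 50 nM His-tagged 4E-BP1 with 10 µM ATP in HEPES pH 7.2 containing 10 mM MnCl2, 120 min at ambient temperature. Substrate was captured on Ni-chelate plates; phospho-4E-BP1 was detected by primary antibody and HRP secondary with luminescence.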

What is called IC50 is the concentration that inhibits the measured activity by half. For `Cc1nc(CN(C)C)nc(N2CCOc3ccc(-c4ccc5scnc5c4)cc3C2)c1Cc1ccc(F)cc1` [Example 336, 1-{4-[7-(1,3-benzothiazol-5-yl)-2,3-dihydro-1,4-benzoxazepin-4(5H)-yl]-5-[(4-fluorophenyl)methyl]-6-methylpyrimidin-2-yl}-N,N-dimethylmethanamine], the IC50 lay in the range of 50 to 250 nM.
Regarding `Cc1nc2c(F)c(-c3ccc4c(c3)CN(c3nc(CN(C)C)nc5c3CC(C)(C)CC5)CCO4)ccc2[nH]1` [Example 341, 1-{4-[7-(4-fluoro-2-methyl-1H-benzimidazol-5-yl)-2,3-dihydro-1,4-benzoxazepin-4(5H)-yl]-6,6-dimethyl-5,6,7,8-tetrahydroquinazolin-2-yl}-N,N-dimethylmethanamine], the IC50 was in the range of 250 to 1000 nM.
The value for `COC(=O)Nc1nc2ccc(-c3ccc4c(c3)CN(c3ncnc5cc(OC)c(OC)cc35)CCO4)cc2[nH]1` [Example 111, methyl (6-{4-[6,7-bis(methyloxy)quinazolin-4-yl]-2,3,4,5-tetrahydro-1,4-benzoxazepin-7-yl}-1H-benzimidazol-2-yl)carbamate] was 1000 to 2000 nM; that for `COc1cccc(Cc2c(C)ncnc2N2CCOc3ccc(-c4ccc5nc(C)[nH]c5c4)cc3C2)c1` [Example 81, 7-(2-methyl-1H-benzimidazol-6-yl)-4-(6-methyl-5-{[3-(methyloxy)phenyl]methyl}pyrimidin-4-yl)-2,3,4,5-tetrahydro-1,4-benzoxazepine] was 10 to 50 nM.
With `Cc1nc2ncc(-c3ccc4c(c3)CN(c3ncnc5c3CCC(C)(C)C5)CCO4)cc2[nH]1` [Example 484, 4-(7,7-dimethyl-5,6,7,8-tetrahydroquinazolin-4-yl)-7-(2-methyl-1H-imidazo[4,5-b]pyridin-6-yl)-2,3,4,5-tetrahydro-1,4-benzoxazepine], the IC50 is at most 10 nM.
With `Cc1nc(CN(C)C)nc(N2CCOc3ccc(-c4ccc5[nH]c(CF)nc5c4)cc3C2)c1Cc1ccc(F)cc1` [Example 321], the IC50 is at most 10 nM.
On to `Nc1nc2ncc(-c3ccc4c(c3)CN(c3ncnc5ccc(Br)cc35)CCO4)cc2[nH]1` [Example 181, 6-[4-(6-brromoquinazolin-4-yl)-2,3,4,5-tetrahydro-1,4-benzoxazepin-7-yl]-1H-imidazo[4,5-b]pyridin-2-amine], for which the IC50 is at most 10 nM.
Turning to `CC[C@H]1CCc2c(nc(C)nc2N2CCOc3ccc(-c4cnc(N)c(S(=O)(=O)N5CCC(C)(N)C5)c4)cc3C2)C1` (stereo partly drawn) [Example 441, 3-[(3-amino-3-methylpyrrolidin-1-yl)sulfonyl]-5-{4-[(7S)-7-ethyl-2-methyl-5,6,7,8-tetrahydroquinazolin-4-yl]-2,3,4,5-tetrahydro-1,4-benzoxazepin-7-yl}pyridin-2-amine], the IC50 lay within 10 to 50 nM.
For the compound `CN(CCO)S(=O)(=O)c1cc(-c2ccc3c(c2)CN(c2ncnc4c2CC(C)(C)CC4)CCO3)cnc1N` [Example 370, 2-amino-5-[4-(6,6-dimethyl-5,6,7,8-tetrahydroquinazolin-4-yl)-2,3,4,5-tetrahydro-1,4-benzoxazepin-7-yl]-N-(2-hydroxyethyl)-N-methylpyridine-3-sulfonamide], the half-maximal inhibitory concentration (IC50) lay within 10 to 50 nM.
Turning to `Cc1ncnc(N2CCOc3ccc(-c4ccc5sc(N)nc5c4)cc3C2)c1Cc1ccc(F)cc1` [Example 148, 5-(4-{5-[(4-fluorophenyl)methyl]-6-methylpyrimidin-4-yl}-2,3,4,5-tetrahydro-1,4-benzoxazepin-7-yl)-1,3-benzothiazol-2-amine], the IC50 is at most 10 nM.
As to `COc1ccc(-c2ccc3c(c2)CN(c2nc(CN(C)C)nc4c2CC(C)(C)CC4)CCO3)cn1` [Example 330, 1-(6,6-dimethyl-4-{7-[6-(methyloxy)pyridin-3-yl]-2,3-dihydro-1,4-benzoxazepin-4(5H)-yl}-5,6,7,8-tetrahydroquinazolin-2-yl)-N,N-dimethylmethanamine], the IC50 was in the range of 250 to 1000 nM.
As to `CC(C)(CN)CNS(=O)(=O)c1cc(-c2ccc3c(c2)CN(c2ncnc4c2CC(C)(C)CC4)CCO3)cnc1N` [Example 411, 2-amino-N-(3-amino-2,2-dimethylpropyl)-5-[4-(6,6-dimethyl-5,6,7,8-tetrahydroquinazol-4-yl)-2,3,4,5-tetrahydro-1,4-benzoxazepin-7-yl]pyridine-3-sulfonamide], the IC50 lay within 10 to 50 nM.
Consider `CNc1ncc(-c2ccc3c(c2)CN(c2ncnc4c2CC(C)(C)CC4)CCO3)cc1NS(C)(=O)=O` [Example 627, N-{5-[4-(6,6-dimethyl-5,6,7,8-tetrahydroquinazolin-4-yl)-2,3,4,5-tetrahydro-1,4-benzoxazepin-7-yl]-2-(methylamino)pyridin-3-yl}methanesulfonamide], for which the IC50 lay in the range of 50 to 250 nM.
As for `CC[C@H]1CCc2c(nc(C)nc2N2CCOc3ccc(-c4cnc5nc(NC(=O)OC)[nH]c5c4)cc3C2)C1` [Example 577, methyl (6-{4-[(7S)-7-ethyl-2-methyl-5,6,7,8-tetrahydroquinazolin-4-yl]-2,3,4,5-tetrahydro-1,4-benzoxazepin-7-yl}-1H-imidazo[4,5-b]pyridin-2-yl)carbamate], the IC50 fell in the range of 10 to 50 nM.
Consider `c1ccc2c(N3CCOc4ccc(-c5ccc6scnc6c5)cc4C3)ccnc2c1` [Example 129, 7-(1,3-benzothiazol-5-yl)-4-quinolin-4-yl-2,3,4,5-tetrahydro-1,4-benzoxazepine], for which the IC50 lay within 250 to 1000 nM.
The value for `COc1c(OCc2ccc3ccccc3n2)ccc2c(N3CCOc4ccc(-c5ccc6nc(C)[nH]c6c5)cc4C3)ncnc12` [Example 167, 7-(2-methyl-1H-benzimidazol-6-yl)-4-{8-(methyloxy)-7-[(quinolin-2-ylmethyl)oxy]quinazolin-4-yl}-2,3,4,5-tetrahydro-1,4-benzoxazepine] was at least 2000 nM; that for `CCCc1nc2cc(-c3ccc4c(c3)CN(c3ncnc5c3CC(C)(C)CC5)CCO4)cnc2[nH]1` [Example 225, 4-(6,6-dimethyl-5,6,7,8-tetrahydroquinazolin-4-yl)-7-(2-propyl-3H-imidazo[4,5-b]pyridin-6-yl)-2,3,4,5-tetrahydro-1,4-benzoxazepine] was at most 10 nM.
On to `Cc1nc2cc(-c3ccc4c(c3)CN(c3nc(CN(C)C)nc(C)c3Cc3ccc(F)cc3)CCO4)ccc2[nH]1` [Example 347, 1-{5-[(4-fluorophenyl)methyl]-4-methyl-6-[7-(2-methyl-1H-benzimidazol-5-yl)-2,3-dihydro-1,4-benzoxazepin-4(5H)-yl]pyrimidin-2-yl}-N,N-dimethylmethanamine], for which the IC50 was at most 10 nM.
Regarding `CC1(C)CCc2ncnc(N3CCOc4ccc(-c5cnc(N)c(S(=O)(=O)N[C@@H]6CCNC6)c5)cc4C3)c2C1` [Example 387, 2-amino-5-[4-(6,6-dimethyl-5,6,7,8-tetrahydroquinazolin-4-yl)-2,3,4,5-tetrahydro-1,4-benzoxazepin-7-yl]-N-[(3R)-pyrrolidin-3-yl]pyridine-3-sulfonamide], the half-maximal inhibitory concentration (IC50) is at most 10 nM.
Turning to `Nc1nc2ncc(-c3ccc4c(c3)CN(c3ncnc5ccc(I)cc35)CCO4)cc2[nH]1` [Example 183, 6-[4-(6-iodoquinazolin-4-yl)-2,3,4,5-tetrahydro-1,4-benzoxazepin-7-yl]-1H-imidazo[4,5-b]pyridin-2-amine], the half-maximal inhibitory concentration (IC50) is at most 10 nM.
Turning to `CNC(=O)c1ccc(-c2ccc3c(c2)CN(c2ncnc(C)c2Cc2ccc(F)cc2)CCO3)cc1` [Example 171, 4-(4-{5-[(4-fluorophenyl)methyl]-6-methylpyrimidin-4-yl}-2,3,4,5-tetrahydro-1,4-benzoxazepin-7-yl)-N-methylbenzamide], the IC50 is at most 10 nM.
